The record followed here is PubChem BioAssay (NCI).

SMILES strings stand for the structures.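 Briefly, cells in 96-well plates were exposed to five compound concentrations for 48 h, and endpoints were estimated by linear interpolation. GI50 is the concentration that inhibits growth by half. TGI: concentration producing complete growth inhibition.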 Bounds are passed on as bounds.

Among the test systems are SF-539 CNS; HL-60(TB) leukemia; OVCAR-8 ovarian; SR leukemia; CAKI-1 renal; SNB-19 CNS; NCI-H522 lung; LOX IMVI melanoma; MALME-3M melanoma; A498 renal.
Assay in all cases: NCI tumour cell line growth inhibition, 48 h

For `C#C[C@]1(O)CCC2C3CCc4cc(O)ccc4C3CC[C@@]21C` (stereo not given in full), the GI50 in the experiment with SF-539 CNS is 4 µM; with HL-60(TB) leukemia it was 3.45 µM; with OVCAR-8 ovarian, 5.8 µM; in the experiment on SR leukemia, 1.24 µM; in the experiment on CAKI-1 renal, 9.15 µM; in the experiment with SNB-19 CNS, 7.59 µM. Besides, the GI50 is 3.47 µM in the experiment with NCI-H522 lung, 5.27 µM in the experiment with LOX IMVI melanoma, 7.08 µM with MALME-3M melanoma and 4.62 µM with A498 renal. Besides, the TGI with SF-539 CNS is 14.7 µM; with HL-60(TB) leukemia it was 24.2 µM; in the experiment on OVCAR-8 ovarian, 37.2 µM; in the experiment with SR leukemia it was 87.4 µM; in the experiment on CAKI-1 renal, 87 µM; in the experiment with SNB-19 CNS it was > 100 µM. Further, the TGI in the experiment on NCI-H522 lung was determined as 20.5 µM; in the experiment with LOX IMVI melanoma it was 18.8 µM; with MALME-3M melanoma, 22.4 µM; in the experiment with A498 renal it was 18.3 µM.

Take `Cn1cc(C2=C(c3cn(CCCCO)c4ccccc34)C(=O)NC2=O)c2ccccc21`: the GI50 is 4.91 µM with SF-539 CNS; 6.71 µM in the experiment on HL-60(TB) leukemia; 8.61 µM in the experiment on OVCAR-8 ovarian; 6.05 µM in the experiment with SR leukemia; 11.8 µM in the experiment on CAKI-1 renal; 14.7 µM in the experiment with SNB-19 CNS. Besides, the GI50 in the experiment with NCI-H522 lung is 10.4 µM; in the experiment with LOX IMVI melanoma, 5.62 µM; with MALME-3M melanoma, > 21.6 µM; in the experiment with A498 renal, 6.32 µM. Also, the TGI in the experiment with SF-539 CNS is 16.7 µM; with HL-60(TB) leukemia, 16.3 µM; in the experiment with OVCAR-8 ovarian, 24.8 µM; in the experiment on SR leukemia, 21.4 µM; in the experiment on CAKI-1 renal, > 25 µM; in the experiment on SNB-19 CNS, > 25 µM. The TGI in the experiment with NCI-H522 lung is > 25 µM; with LOX IMVI melanoma, > 25 µM; with MALME-3M melanoma it was > 25 µM; in the experiment with A498 renal, 22.2 µM.

With `Cc1ccc(NC(=O)CC2CC2)cc1-c1ccc(C(=O)NCC2CC2)cc1`, the GI50 is > 25 µM in the experiment with SF-539 CNS; > 24.2 µM in the experiment on HL-60(TB) leukemia; > 25 µM with OVCAR-8 ovarian; 13.5 µM in the experiment on SR leukemia; > 25 µM with CAKI-1 renal; > 25 µM in the experiment on SNB-19 CNS. Further, the GI50 in the experiment with NCI-H522 lung, in the experiment on LOX IMVI melanoma, in the experiment with MALME-3M melanoma and in the experiment on A498 renal was > 25 µM each time. Moreover, the TGI in the experiment on SF-539 CNS, in the experiment on HL-60(TB) leukemia, in the experiment with OVCAR-8 ovarian, in the experiment with SR leukemia, in the experiment with CAKI-1 renal and in the experiment with SNB-19 CNS was > 25 µM each time. Moreover, the TGI in the experiment on NCI-H522 lung, in the experiment on LOX IMVI melanoma, with MALME-3M melanoma and in the experiment on A498 renal was > 25 µM throughout.

For the molecule `CCOC(=O)Nc1ccc(C)c(NC(=O)OCC)c1`, the TGI in the experiment with SF-539 CNS, in the experiment on HL-60(TB) leukemia, in the experiment with OVCAR-8 ovarian, in the experiment on SR leukemia, with CAKI-1 renal and with SNB-19 CNS was > 100 µM each time. Also, the TGI with NCI-H522 lung, in the experiment on LOX IMVI melanoma, in the experiment on MALME-3M melanoma and with A498 renal was > 100 µM in each case.

Turning to `COc1ccc(-c2nc3ccc(-c4nc5ccc(N6CCN(c7ccccc7)CC6)cc5[nH]4)cc3[nH]2)cc1OC`, the GI50 is 1.37 µM in the experiment on SF-539 CNS; 1.78 µM with HL-60(TB) leukemia; 1.52 µM in the experiment with OVCAR-8 ovarian; 0.341 µM in the experiment with SR leukemia; 2.18 µM with CAKI-1 renal; 1.93 µM in the experiment with SNB-19 CNS. The GI50 with NCI-H522 lung is 1.81 µM; in the experiment with LOX IMVI melanoma it was 0.357 µM; in the experiment on MALME-3M melanoma, 1.05 µM; in the experiment with A498 renal it was 2.93 µM. The TGI in the experiment on SF-539 CNS stood at 2.81 µM; in the experiment on HL-60(TB) leukemia it was 10.2 µM; with OVCAR-8 ovarian, 4.56 µM; with SR leukemia, 2.83 µM; in the experiment on CAKI-1 renal, 8.02 µM; in the experiment with SNB-19 CNS, 3.59 µM. In addition, the TGI stood at 4.15 µM in the experiment on NCI-H522 lung, 1.34 µM in the experiment on LOX IMVI melanoma, 2.52 µM with MALME-3M melanoma and 9.63 µM with A498 renal.

In the case of `COc1ccc(NC(=O)/C(Cc2cc(=O)oc3cc(O)ccc23)=N\NC(C)(C)C)c(OC)c1`, the TGI in the experiment on SF-539 CNS, with HL-60(TB) leukemia, in the experiment on OVCAR-8 ovarian, in the experiment with SR leukemia, in the experiment with CAKI-1 renal and in the experiment on SNB-19 CNS was > 100 µM throughout. The TGI in the experiment with NCI-H522 lung, in the experiment on LOX IMVI melanoma, in the experiment on MALME-3M melanoma and in the experiment on A498 renal was > 100 µM throughout.

`COc1cccc2c1C(=O)c1c(O)c3c(c(O)c1C2=O)C[C@](O)(C(=O)CO)C[C@H]3O[C@@H]1C[C@@H](NC(=O)CCCCCN(C)C2(c3ccc(F)cc3)CC3CCC2C3)[C@H](O)[C@@H](C)O1` (stereo not given in full): the GI50 in the experiment on SF-539 CNS is 3.67 µM; in the experiment on HL-60(TB) leukemia, 6.59 µM; in the experiment on OVCAR-8 ovarian, 1.18 µM; in the experiment with SR leukemia it was 0.223 µM; with CAKI-1 renal it was 6.82 µM; in the experiment on SNB-19 CNS, 6.48 µM. Besides, the GI50 in the experiment with NCI-H522 lung is 0.707 µM; with LOX IMVI melanoma, 5.17 µM; in the experiment on MALME-3M melanoma, 7.85 µM; in the experiment with A498 renal, 5.92 µM. In addition, the TGI in the experiment with SF-539 CNS is 10.3 µM; with HL-60(TB) leukemia, 16.1 µM; in the experiment on OVCAR-8 ovarian, 3.94 µM; in the experiment with SR leukemia it was 1.64 µM; with CAKI-1 renal, 13.3 µM; with SNB-19 CNS it was 14.8 µM. For the same molecule, the TGI in the experiment with NCI-H522 lung amounted to 1.57 µM; in the experiment on LOX IMVI melanoma it was 13.1 µM; in the experiment with MALME-3M melanoma, 16.9 µM; with A498 renal, 12.4 µM.

In the case of `COc1cc2c(c(OC)c1OC)-c1ccc(SC)c(=O)cc1C(NC=O)CC2` (stereo not given), the TGI is < 0.0464 µM in the experiment on SF-539 CNS; 0.0492 µM in the experiment on HL-60(TB) leukemia; > 68.5 µM in the experiment with OVCAR-8 ovarian; 36.6 µM with SR leukemia; > 83 µM in the experiment with CAKI-1 renal; > 100 µM in the experiment with SNB-19 CNS. Moreover, the TGI with NCI-H522 lung was < 0.01 µM; in the experiment with LOX IMVI melanoma it was > 41.1 µM; in the experiment on MALME-3M melanoma, > 83 µM; with A498 renal, 1.76 µM.
